Measurements as given in ChEMBL document CHEMBL1201862, “PubChem BioAssay data set” (2004).
Active and inactive are the calls of the source.

Legend:
[1] = molecular target: T1, Histone-lysine N-methyltransferase NSD2 (Homo sapiens, UniProt O96028); format: biochemical
T1 sequence (O96028 whole entry): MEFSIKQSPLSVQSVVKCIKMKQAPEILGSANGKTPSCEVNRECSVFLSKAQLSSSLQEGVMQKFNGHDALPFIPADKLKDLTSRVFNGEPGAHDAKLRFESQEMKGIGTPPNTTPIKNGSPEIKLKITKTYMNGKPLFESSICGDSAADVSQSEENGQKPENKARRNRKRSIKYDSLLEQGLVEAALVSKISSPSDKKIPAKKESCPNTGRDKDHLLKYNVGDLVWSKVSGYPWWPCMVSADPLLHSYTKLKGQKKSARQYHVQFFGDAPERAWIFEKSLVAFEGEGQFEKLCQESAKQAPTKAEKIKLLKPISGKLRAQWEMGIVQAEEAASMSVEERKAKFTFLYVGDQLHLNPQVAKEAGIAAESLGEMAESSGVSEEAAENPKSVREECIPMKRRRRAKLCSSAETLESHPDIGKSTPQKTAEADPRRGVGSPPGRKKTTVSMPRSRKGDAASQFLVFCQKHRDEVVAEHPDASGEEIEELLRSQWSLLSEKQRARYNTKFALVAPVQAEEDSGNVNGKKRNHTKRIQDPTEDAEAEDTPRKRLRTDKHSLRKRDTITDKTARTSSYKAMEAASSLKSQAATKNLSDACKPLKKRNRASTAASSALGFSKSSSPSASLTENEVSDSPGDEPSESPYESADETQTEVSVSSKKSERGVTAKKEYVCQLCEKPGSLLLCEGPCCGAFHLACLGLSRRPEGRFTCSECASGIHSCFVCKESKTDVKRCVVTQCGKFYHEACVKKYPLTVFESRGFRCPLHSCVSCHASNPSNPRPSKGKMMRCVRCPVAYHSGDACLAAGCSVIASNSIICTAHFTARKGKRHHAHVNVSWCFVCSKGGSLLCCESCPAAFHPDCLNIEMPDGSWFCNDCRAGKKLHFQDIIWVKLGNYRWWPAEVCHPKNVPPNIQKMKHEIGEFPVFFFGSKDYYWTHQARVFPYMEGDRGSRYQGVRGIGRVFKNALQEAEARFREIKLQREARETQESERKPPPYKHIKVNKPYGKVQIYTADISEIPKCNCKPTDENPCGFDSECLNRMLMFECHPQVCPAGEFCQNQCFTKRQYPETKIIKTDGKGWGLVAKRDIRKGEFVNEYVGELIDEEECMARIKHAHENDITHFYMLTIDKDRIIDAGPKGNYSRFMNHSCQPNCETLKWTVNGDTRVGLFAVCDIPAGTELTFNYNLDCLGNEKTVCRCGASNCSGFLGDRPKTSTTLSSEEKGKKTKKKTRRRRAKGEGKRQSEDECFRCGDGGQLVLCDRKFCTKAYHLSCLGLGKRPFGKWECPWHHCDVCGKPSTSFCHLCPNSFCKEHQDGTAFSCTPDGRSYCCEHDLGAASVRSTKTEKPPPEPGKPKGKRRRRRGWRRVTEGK

[2] = molecular target: T2, Oxysterols receptor LXR-beta (Homo sapiens, UniProt P55055); format: functional, cell-based;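 further: agonist activity at LXR measured by a cell-based luminescence readout across a dose range, run as a counterscreen for daf-12 agonists; HEK293 cells with Gal4-LXR fusion and GAL4-driven luciferase reporter; potency for activation of Gal4-LXR reporter so compounds are agonists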
T2 sequence (P55055 whole entry): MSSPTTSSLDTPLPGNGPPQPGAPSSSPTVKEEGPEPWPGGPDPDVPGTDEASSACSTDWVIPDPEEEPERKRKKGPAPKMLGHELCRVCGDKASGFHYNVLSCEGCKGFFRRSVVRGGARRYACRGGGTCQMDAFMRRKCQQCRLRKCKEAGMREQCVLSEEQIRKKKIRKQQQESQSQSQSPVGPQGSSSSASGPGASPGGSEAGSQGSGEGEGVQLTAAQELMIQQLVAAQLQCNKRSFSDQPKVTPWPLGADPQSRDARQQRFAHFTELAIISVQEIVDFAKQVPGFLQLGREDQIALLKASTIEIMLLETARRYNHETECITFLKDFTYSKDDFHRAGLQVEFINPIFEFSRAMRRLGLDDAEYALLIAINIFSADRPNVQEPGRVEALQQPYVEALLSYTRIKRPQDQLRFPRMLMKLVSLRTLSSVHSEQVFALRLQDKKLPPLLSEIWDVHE

[3] = tested on: Streptococcus sp. 'group A'; test: Streptococcus pyogenes SK(-)GAS viability under kanamycin – luminescence, BacTiterGlo, confirmation, counter-screen for streptokinase expression inhibitor project, dose response (AID 1900); format: functional, organism-based
[4] = tested on: Streptococcus; test: GAS UMAA2166 growth inhibition – luminescence, BacTiterGlo, counter-screen for streptokinase expression inhibitor project, dose response (AID 1915); format: functional, organism-based;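 further: potency for reduction of bacterial viability or growth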
[5] = Trypanosoma cruzi growth suppression in host cells – NIH3T3 host cells, beta-gal luminescence, confirmation (AID 2044); format: functional, cell-based;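 further: intracellular parasites grown in NIH/3T3 mouse fibroblasts as host cells; luminescent beta-galactosidase reporter signal from transgenic T. cruzi replicating inside host cells; inhibitors lower the luminescence signal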
[6] = tested on: Vero; test: cells; format: functional; conditions: Chlorocebus sabaeus
[7] = HGIII-sPLA2 enzyme inhibition potency – biochemical, QFRET, IC50, dose response (AID 743457);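 further: green fluorescence rise as the enzyme cleaves BODIPY PC-A2 in liposomes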
[8] = Counterscreen for inhibitors of Trypanosoma brucei methionyl tRNA synthetase (MetRS): Luminescence-based cell-based high throughput dose response assay to identify compounds that are cytotoxic to Jurkat human T lymphocyte cells.; format: functional
[9] = molecular target: T3, Methionyl-tRNA synthetase, putative (Trypanosoma brucei brucei, UniProt Q38C91); format: functional, Trypanosoma brucei brucei strain 927/4 GUTat10.1
T3 sequence (Q38C91 whole entry): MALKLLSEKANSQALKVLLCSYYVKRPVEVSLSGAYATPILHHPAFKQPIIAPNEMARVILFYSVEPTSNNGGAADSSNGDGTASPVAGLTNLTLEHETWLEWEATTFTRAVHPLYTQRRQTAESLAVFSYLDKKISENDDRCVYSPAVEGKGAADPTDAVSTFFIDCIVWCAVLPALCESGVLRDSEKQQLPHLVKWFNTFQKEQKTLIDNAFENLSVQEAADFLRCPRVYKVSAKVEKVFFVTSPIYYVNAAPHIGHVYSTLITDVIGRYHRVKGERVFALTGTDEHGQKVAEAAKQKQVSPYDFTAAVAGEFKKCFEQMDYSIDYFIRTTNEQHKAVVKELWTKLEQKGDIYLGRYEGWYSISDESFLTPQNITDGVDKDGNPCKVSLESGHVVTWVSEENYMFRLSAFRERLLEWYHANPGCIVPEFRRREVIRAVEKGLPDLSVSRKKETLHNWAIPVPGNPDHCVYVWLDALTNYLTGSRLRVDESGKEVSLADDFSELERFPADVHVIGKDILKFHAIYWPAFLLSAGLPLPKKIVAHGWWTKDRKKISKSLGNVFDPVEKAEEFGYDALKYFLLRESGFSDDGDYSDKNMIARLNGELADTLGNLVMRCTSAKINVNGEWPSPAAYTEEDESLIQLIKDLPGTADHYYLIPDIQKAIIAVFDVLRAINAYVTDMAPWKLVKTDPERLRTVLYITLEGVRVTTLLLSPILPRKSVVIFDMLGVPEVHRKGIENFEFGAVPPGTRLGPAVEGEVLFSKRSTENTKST

[10] = molecular target: T3, Methionyl-tRNA synthetase, putative; format: functional, Trypanosoma brucei brucei strain 927/4 GUTat10.1; remark: listed apart in the source
[11] = molecular target: Beta-galactosidase (Escherichia coli, UniProt Q8VNN2); test: Dose response counterscreen for EBI2 assay utilizing the enzyme, b-galactosidase.; format: functional
[12] = molecular target: Large T antigen (Simian virus 40, UniProt P03070); format: functional, Betapolyomavirus macacae;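 further: Confirmatory-stage PubChem screen for compounds that inhibit SV40 T antigen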
Large T antigen, sequence (P03070 whole entry): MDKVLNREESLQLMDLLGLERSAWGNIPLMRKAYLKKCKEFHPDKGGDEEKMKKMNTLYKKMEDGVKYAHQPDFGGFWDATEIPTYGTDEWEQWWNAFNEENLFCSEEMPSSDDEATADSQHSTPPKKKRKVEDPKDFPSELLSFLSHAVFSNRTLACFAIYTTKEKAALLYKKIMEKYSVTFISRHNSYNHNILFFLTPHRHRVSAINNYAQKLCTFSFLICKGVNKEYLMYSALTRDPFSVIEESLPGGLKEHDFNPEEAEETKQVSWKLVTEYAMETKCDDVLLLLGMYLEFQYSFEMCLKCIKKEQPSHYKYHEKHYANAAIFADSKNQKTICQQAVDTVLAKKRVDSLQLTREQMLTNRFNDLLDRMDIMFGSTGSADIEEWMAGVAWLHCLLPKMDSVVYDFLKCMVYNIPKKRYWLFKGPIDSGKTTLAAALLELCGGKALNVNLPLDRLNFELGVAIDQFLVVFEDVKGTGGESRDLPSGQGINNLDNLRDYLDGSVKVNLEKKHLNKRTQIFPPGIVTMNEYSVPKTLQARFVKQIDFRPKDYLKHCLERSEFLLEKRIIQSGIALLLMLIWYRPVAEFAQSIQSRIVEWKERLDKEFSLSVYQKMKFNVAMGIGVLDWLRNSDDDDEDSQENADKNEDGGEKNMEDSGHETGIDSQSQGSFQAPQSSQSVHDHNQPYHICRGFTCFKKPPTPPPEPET

Beta-galactosidase, sequence (Q8VNN2 whole entry): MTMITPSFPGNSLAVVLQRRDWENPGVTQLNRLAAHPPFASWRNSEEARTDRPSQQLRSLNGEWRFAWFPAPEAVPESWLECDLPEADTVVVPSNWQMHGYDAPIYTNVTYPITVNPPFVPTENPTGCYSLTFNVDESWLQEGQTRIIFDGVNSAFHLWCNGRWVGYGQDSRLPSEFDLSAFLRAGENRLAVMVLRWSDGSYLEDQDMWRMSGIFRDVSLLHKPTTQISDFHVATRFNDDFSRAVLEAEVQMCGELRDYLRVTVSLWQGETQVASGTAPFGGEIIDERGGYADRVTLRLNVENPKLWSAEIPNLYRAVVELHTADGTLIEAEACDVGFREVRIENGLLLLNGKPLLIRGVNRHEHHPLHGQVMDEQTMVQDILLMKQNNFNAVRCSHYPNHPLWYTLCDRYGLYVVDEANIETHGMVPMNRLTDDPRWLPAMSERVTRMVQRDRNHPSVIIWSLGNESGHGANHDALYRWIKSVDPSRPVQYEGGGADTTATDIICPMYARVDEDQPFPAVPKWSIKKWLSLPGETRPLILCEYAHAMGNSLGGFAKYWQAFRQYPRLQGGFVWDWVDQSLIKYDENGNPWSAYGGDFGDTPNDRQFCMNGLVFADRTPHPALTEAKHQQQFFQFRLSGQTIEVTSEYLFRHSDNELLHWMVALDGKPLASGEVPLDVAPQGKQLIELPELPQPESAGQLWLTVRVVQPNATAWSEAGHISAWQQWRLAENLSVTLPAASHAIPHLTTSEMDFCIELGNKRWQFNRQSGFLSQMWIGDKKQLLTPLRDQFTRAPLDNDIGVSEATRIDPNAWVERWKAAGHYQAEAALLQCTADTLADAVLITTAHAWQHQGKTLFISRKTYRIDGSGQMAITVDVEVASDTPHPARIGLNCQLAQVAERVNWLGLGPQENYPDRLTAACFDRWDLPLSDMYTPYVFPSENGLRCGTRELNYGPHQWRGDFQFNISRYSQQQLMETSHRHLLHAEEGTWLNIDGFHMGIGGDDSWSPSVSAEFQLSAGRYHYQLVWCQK

With `CN1CCN(c2ncnc3c2cnn3C)CC1` as the compound, how does the AC50 [1] read?
The AC50 was 13.3 µM (active).

Which EC50 [2] does the source give for `Clc1ccc(CSc2nc3cc[nH]cc-3n2)cc1` here?
Its EC50 is > 67.5 µM (inactive).

For `COc1cc(C(=O)NNC(=S)NC(=O)c2ccc(Cl)cc2)cc(OC)c1OC`, which EC50 [3] is on record?
Its EC50 is 0.822 µM (active).

What about the EC50 [4] of the same compound?
Its EC50 is 2.17 µM (active).

And the EC50 [5]?
The EC50 was 0.756 µM (active).

And the CC50 [6]?
Its CC50 is > 25 µM (active).

What about the IC50 [7] of the same compound?
Its IC50 is > 122 µM (inactive).

For `Cc1cccc(OCCCC(=O)Nc2ccc(Br)cc2)c1`, which IC50 [8] is on record?
Its IC50 is 83.3 µM (inactive).

And the IC50 [9]?
The IC50 was 32 µM (inactive).

What about the IC50 [10] of the same compound?
Its IC50 is 119 µM (inactive).

Which EC50 [2] does the source give for `CN(C)c1ccc(C(C#N)c2ccccc2)nn1` (configuration not stated) here?
The EC50 was > 67.5 µM (inactive).

For `Cc1ccc(Nc2ccc(C(=O)NCCc3ccccc3)cn2)cc1`, which IC50 [11] is on record?
Its IC50 is > 80 µM (inactive).

For `Cc1ccc(CNC(=O)C2CCN(S(=O)(=O)c3ccc4c(c3)OCCCO4)CC2)cc1`, which IC50 [11] is on record?
Its IC50 is > 80 µM (inactive).

With `CCN(CC)C1CCN(c2nc3nonc3nc2NCCOC)C1` (configuration not stated) as the compound, how does the AC50 [1] read?
The AC50 was 14.4 µM (active).

With `O=C(c1ccc(Cl)cc1)N1CCN(S(=O)(=O)/C=C/c2ccccc2)CC1` as the compound, how does the IC50 [11] read?
The IC50 was > 80 µM (inactive).

With `CN(C)c1ccc(Nc2nc(-c3cccnc3)cs2)cc1` as the compound, how does the EC50 [2] read?
The EC50 was > 67.5 µM (inactive).

What about the IC50 [12] of the same compound?
The IC50 was 8.54 µM (active).
